Measured values taken from patent US20100086520A1, “Compositions, Kits and Uses For Protecting The Skin Against Pathogenic Microorganisms” (OrganoBalance GmbH, priority 2006, published 2010).
Bridge positions count the residues as written; N and C are the ends. Square brackets hold non-standard residues; d marks the D form. Peptide text beside a SMILES is read from it. * marks the point of attachment. Ileψ(thiazoline)Cys = CC[C@H](C)[C@H](N)C1=N[C@H](C(=O)*)CS1; dOrn = NCCC[C@@H](N)C(=O)O

How the values were obtained:
resident flora = conditions: infants, after treatment with the antibiotic; cited from earlier work
Candida albicans = conditions: in vivo; cited from earlier work
[1] = test system: Staphylococcus aureus (DSM346); assay: in-vitro-hole plate assay, growth inhibition of S. aureus in comparison to bacitracin and erythromycin (Example 12); format: cell-based; conditions: BHI agar, pre-cut holes; antibiotics at different concentrations, defined numbers of Lactobacillus cells; FIG. 10A/10B
Source text: The degree of growth inhibition of the microorganism(s) of the transient pathogenic skin micro flora in comparison to the inhibition of growth of at least one such microorganism after the use of an antibiotic can preferably be observed in vitro, more preferably in an assay in which a microorganism according to aspect (ii) of the invention, as described herein above, is contacted with one or more microorganisms of the transient pathogenic skin micro flora and the growth of the(se) microorganism(s) of the transient pathogenic skin micro flora is determined. Most preferably, the comparison of growth inhibition can be determined in an “in vitro hole plate assay” as described in the Examples and mentioned herein above. […]
This effect has been compared to commercial antibiotic cream preparations of bacitracin and erythromycin. […] The diameter of the inhibition zones has been measured and the area of inhibition has been calculated thereof. […]

Compound: CC1(C)S[C@@H]2[C@H](NC(=O)[C@H](N)c3ccc(O)cc3)C(=O)N2[C@H]1C(=O)O [amoxicillin]
- repression of the resident flora (resident flora): about 50%
- increase of the pathogenic yeast Candida albicans (Candida albicans): more than a fourteen-fold increase

Compound: CC[C@H]1OC(=O)[C@H](C)[C@@H](O[C@H]2C[C@@](C)(OC)[C@@H](O)[C@H](C)O2)[C@H](C)[C@@H](O[C@@H]2O[C@H](C)C[C@H](N(C)C)[C@H]2O)[C@](C)(O)C[C@@H](C)C(=O)[C@H](C)[C@@H](O)[C@]1(C)O [erythromycin]
- growth inhibition of the indicator strain S. aureus (inhibition zone, area of inhibition) [1]: growth inhibition of the indictator strain S. aureus has been observed

Compound: Lactobacillus delbrückii ssp. delbrückii OB-LB-Sa3
- growth inhibition of the indicator strain S. aureus (inhibition zone, area of inhibition) [1]: growth inhibition of S. aureus

Compound: CC[C@H](C)[C@H](N)C1=N[C@H](C(=O)N[C@@H](CC(C)C)C(=O)N[C@H](CCC(=O)O)C(=O)N[C@H](C(=O)N[C@H]2CCCCNC(=O)[C@H](CC(N)=O)NC(=O)[C@@H](CC(=O)O)NC(=O)[C@H](Cc3cnc[nH]3)NC(=O)[C@@H](Cc3ccccc3)NC(=O)[C@H]([C@@H](C)CC)NC(=O)[C@@H](CCCN)NC2=O)[C@@H](C)CC)CS1 [bacitracin] ({Ileψ(thiazoline)Cys}-L[dE]IK[dOrn]I[dF]H[dD]N; lactam 4-C)
- growth inhibition of the indicator strain S. aureus (inhibition zone, area of inhibition) [1]: growth inhibition of the indictator strain S. aureus has been observed
